Assay results reported in article PMC9457941, “Synthesis and Kinase Inhibitory Potencies of Pyrazolo[3,4-g]isoquinolines” (Molecules, 2022).
Like-named read-outs stand apart in the source and are kept apart here.

Columns and labels:
Type in all cases: biochemical
[1] = target: T1, CDK5/p25 (Homo sapiens, UniProt Q00535); test: ADP-Glo kinase inhibition assay, CDK5/p25; conditions: for remaining activity at 1 µM: read-out: CDK5 % residual activity at 1 μM; for remaining activity at 10 µM: read-out: CDK5 % residual activity at 10 μM
T1 construct: host or cells: bacteria
Method: (§1) Kinase enzymatic activities were assayed in 384 well plates using the ADP-GloTM assay kit (Promega, Madison, WI, USA) according to the manufacturer’s guidance. Briefly, the reactions were carried out in a final volume of 6 μL for 30 min at 30 °C in an appropriate kinase buffer (10 mM MgCl2, 1 mM EGTA, 1 mM DTT, 25 mM Tris-HCl pH 7.5, 50 μg/mL heparin), with either protein or peptide as substrate in the presence of 10 μM ATP (40 mM Tris pH 7.5, 20 mM MgCl2 and 0.1 mg/mL of BSA). Afterward, 6 μL of ADP-GloTM Kinase Reagent was added to stop the kinase reaction. After an incubation time of 50 min at room temperature (RT), 12 μL of Kinase Detection Reagent was added for 1 h at RT. The transmitted signal was measured using the Envision (Perkin Elmer, Waltham, MA, USA) microplate luminometer and expressed in relative light unit (RLU). In order to determine the half maximal inhibitory concentration (IC50), the assays were performed in duplicate in the absence or presence of increasing doses of the tested compounds. GraphPad Prism6 software (GraphPad Software, San Diego, CA, USA) was used to fit dose–response curves and to determine the IC50 values. Kinase activities are expressed in the percentage of maximal activity, i.e., measured in the absence of an inhibitor. Peptide substrates were obtained from Proteogenix (Schiltigheim, France).
(§2) The following protein kinases were analyzed in this study: CDK5/p25 (human, recombinant, expressed in bacteria) was assayed with 0.8 μg/μL of histone H1 as substrate; CDK9/CyclinT (human, recombinant, expressed by baculovirus in Sf9 insect cells) were assayed with 0.27 μg/μL of the following peptide: […], as substrate; CK1ε (human, recombinant, expressed by baculovirus in Sf9 insect cells) was assayed with 0.022 μg/μL of the following peptide: […]pAYSITA (“Sp” stands for phosphorylated serine) as CK1-specific substrate; GSK3β (human, recombinant, expressed by baculovirus in Sf9 insect cells) were assayed with 0.010 μg/μL of GS-1 peptide, a GSK-3-selective substrate ([…]pEDEEE); Haspin-kd (human, kinase domain, amino acids 470–798, recombinant, expressed in bacteria) was assayed with 0.007 μg/μL of histone H3 (1–21) peptide ([…]) as substrate; Pim-1 (human proto-oncogene, recombinant, expressed in bacteria) was assayed with 0.8 μg/μL of histone H1 as substrate; MmCLK1 (from Mus musculus, recombinant, expressed in bacteria) was assayed with 0.027 μg/μL of the following peptide: […] as substrate; RnDYRK1A-kd (Rattus norvegicus, amino acids 1–499 including the kinase domain, recombinant, expressed in bacteria, DNA vector kindly provided by Dr. W. Becker, Aachen, Germany) was assayed with 0.033 μg/μL of the following peptide: […] as substrate.

[2] = target: T2, Haspin-kd (human, kinase domain, amino acids 470–798) (Homo sapiens, UniProt Q8TF76); test: ADP-Glo kinase inhibition assay, Haspin; conditions: for IC50: 10 μM ATP, duplicate; for remaining activity at 1 µM: read-out: Haspin % residual activity at 1 μM; for remaining activity at 10 µM: read-out: Haspin % residual activity at 10 μM
T2 construct: Haspin-kd (human, kinase domain, amino acids 470–798, recombinant, expressed in bacteria); host or cells: bacteria
T2 sequence (Q8TF76 470-798): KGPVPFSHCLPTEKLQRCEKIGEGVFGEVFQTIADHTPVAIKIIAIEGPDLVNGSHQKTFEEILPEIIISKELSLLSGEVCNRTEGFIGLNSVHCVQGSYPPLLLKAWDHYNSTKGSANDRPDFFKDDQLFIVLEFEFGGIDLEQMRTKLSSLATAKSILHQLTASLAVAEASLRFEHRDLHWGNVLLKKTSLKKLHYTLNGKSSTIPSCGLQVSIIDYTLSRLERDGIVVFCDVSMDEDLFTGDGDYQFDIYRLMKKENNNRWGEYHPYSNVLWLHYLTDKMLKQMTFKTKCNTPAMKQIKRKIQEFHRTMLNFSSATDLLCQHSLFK
Method: as §1

[3] = target: T3, CDK9/CyclinT (Homo sapiens, UniProt P50750); test: ADP-Glo kinase inhibition assay, CDK9/CyclinT; conditions: for remaining activity at 1 µM: read-out: CDK9 % residual activity at 1 μM; for remaining activity at 10 µM: read-out: CDK9 % residual activity at 10 μM
T3 construct: host or cells: Sf9 insect cells (baculovirus)
Method: as §1, §2

[4] = target: T4, RnDYRK1A-kd (Rattus norvegicus, UniProt Q63470); test: ADP-Glo kinase inhibition assay, DYRK1A; conditions: for remaining activity at 1 µM: read-out: DYRK1A % residual activity at 1 μM; for remaining activity at 10 µM: read-out: DYRK1A % residual activity at 10 μM
T4 construct: RnDYRK1A-kd (Rattus norvegicus, amino acids 1–499 including the kinase domain, recombinant, expressed in bacteria); made in house; host or cells: bacteria
Method: as §1, §2

[5] = target: T5, MmCLK1 (Mus musculus, UniProt P22518); test: ADP-Glo kinase inhibition assay, CLK1; conditions: for remaining activity at 1 µM: read-out: CLK1 % residual activity at 1 μM; for remaining activity at 10 µM: read-out: CLK1 % residual activity at 10 μM
T5 construct: host or cells: bacteria
Method: as §1, §2

[6] = target: T6, Pim-1 (Homo sapiens, UniProt P11309); test: ADP-Glo kinase inhibition assay, Pim-1; conditions: 10 μM ATP, duplicate; for remaining activity at 1 µM: 1 μM compound, read-out: PIM1 % residual activity at 1 μM; for remaining activity at 10 µM: 10 μM compound, read-out: PIM1 % residual activity at 10 μM
T6 construct: host or cells: bacteria
Method: as §1, §2

[7] = target: T7, CK1ε (Homo sapiens, UniProt P49674); test: ADP-Glo kinase inhibition assay, CK1ε; conditions: 10 μM ATP, duplicate; for remaining activity at 1 µM: 1 μM compound, read-out: CK1 % residual activity at 1 μM; for remaining activity at 10 µM: 10 μM compound, read-out: CK1 % residual activity at 10 μM
T7 construct: host or cells: Sf9 insect cells (baculovirus)
Method: as §1, §2

[8] = target: T8, GSK3β (Homo sapiens, UniProt P49841); test: ADP-Glo kinase inhibition assay, GSK3β; conditions: for remaining activity at 1 µM: read-out: GSK3 % residual activity at 1 μM; for remaining activity at 10 µM: read-out: GSK3 % residual activity at 10 μM
T8 construct: host or cells: Sf9 insect cells (baculovirus)
Method: as §1, §2

[9] = 10 μM ATP, duplicate, read-out: DYRK1A IC50
[10] = 10 μM ATP, duplicate, read-out: CLK1 IC50

T3 sequence (O60563 whole entry): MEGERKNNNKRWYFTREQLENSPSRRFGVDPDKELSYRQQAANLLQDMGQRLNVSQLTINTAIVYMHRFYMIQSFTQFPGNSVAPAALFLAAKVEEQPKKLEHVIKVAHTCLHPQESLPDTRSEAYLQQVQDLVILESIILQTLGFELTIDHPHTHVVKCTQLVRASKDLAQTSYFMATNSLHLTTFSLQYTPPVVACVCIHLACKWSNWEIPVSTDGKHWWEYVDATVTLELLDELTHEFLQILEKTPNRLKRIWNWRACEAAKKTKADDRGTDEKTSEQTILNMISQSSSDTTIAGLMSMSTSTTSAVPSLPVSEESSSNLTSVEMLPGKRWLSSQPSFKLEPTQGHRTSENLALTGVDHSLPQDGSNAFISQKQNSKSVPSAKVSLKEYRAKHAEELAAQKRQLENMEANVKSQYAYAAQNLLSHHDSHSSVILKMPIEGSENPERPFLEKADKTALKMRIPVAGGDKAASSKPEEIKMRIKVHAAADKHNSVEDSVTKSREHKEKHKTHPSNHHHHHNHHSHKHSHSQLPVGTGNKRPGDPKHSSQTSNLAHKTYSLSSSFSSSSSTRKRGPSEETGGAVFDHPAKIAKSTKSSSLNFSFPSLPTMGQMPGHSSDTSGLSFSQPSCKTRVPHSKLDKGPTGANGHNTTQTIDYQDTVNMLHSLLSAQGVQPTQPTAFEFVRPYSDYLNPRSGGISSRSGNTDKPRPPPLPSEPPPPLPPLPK
T3 sequence (P50750 whole entry): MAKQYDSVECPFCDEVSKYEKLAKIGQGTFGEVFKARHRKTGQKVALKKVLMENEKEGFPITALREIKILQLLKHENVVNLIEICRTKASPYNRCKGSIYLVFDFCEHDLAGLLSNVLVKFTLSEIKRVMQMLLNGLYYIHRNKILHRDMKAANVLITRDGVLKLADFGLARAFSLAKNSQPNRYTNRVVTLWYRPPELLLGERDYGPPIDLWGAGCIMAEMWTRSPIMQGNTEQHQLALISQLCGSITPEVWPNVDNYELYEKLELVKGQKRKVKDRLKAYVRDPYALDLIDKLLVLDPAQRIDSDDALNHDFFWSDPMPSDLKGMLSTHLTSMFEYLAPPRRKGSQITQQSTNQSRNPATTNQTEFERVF
T7 sequence (P49674 whole entry): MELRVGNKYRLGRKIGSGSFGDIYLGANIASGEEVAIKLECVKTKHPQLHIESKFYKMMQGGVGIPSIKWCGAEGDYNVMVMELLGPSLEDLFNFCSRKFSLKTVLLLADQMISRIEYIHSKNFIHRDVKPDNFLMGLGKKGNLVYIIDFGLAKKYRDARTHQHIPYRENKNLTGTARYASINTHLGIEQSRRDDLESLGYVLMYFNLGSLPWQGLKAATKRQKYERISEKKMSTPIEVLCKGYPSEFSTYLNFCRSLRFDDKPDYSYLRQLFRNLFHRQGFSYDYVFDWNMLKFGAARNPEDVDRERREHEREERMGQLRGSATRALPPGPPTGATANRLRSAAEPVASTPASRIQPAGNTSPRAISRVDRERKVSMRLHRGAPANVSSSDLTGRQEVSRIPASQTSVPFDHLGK
T5 sequence (P22518 whole entry): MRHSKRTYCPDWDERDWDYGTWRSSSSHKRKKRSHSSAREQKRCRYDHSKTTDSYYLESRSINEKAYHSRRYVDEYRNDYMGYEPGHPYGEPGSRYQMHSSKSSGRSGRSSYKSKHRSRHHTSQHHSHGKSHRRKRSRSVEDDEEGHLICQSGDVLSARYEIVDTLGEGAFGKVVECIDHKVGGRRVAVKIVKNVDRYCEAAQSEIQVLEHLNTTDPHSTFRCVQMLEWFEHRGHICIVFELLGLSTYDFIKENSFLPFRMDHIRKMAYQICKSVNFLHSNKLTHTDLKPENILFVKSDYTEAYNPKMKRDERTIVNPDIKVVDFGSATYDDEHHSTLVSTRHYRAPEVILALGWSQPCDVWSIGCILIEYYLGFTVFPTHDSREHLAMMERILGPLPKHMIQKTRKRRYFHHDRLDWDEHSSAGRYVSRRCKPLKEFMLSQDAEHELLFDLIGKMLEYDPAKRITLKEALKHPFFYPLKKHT
T1 sequence (Q00535 whole entry): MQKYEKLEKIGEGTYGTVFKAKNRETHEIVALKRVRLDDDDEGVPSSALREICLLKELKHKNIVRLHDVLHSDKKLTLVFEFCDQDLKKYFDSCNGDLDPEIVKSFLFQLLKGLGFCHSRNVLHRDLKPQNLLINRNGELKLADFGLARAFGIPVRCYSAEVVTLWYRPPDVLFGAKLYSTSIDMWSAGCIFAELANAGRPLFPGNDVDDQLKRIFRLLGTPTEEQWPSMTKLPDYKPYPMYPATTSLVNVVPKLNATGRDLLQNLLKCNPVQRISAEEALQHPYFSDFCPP
T1 sequence (Q15078 99-307, further chain): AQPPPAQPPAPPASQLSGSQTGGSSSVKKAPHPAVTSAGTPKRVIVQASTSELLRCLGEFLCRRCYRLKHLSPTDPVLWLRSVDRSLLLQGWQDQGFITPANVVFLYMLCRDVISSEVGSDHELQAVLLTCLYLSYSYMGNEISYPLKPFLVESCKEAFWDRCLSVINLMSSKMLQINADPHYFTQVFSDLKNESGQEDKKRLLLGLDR
T6 sequence (P11309 whole entry): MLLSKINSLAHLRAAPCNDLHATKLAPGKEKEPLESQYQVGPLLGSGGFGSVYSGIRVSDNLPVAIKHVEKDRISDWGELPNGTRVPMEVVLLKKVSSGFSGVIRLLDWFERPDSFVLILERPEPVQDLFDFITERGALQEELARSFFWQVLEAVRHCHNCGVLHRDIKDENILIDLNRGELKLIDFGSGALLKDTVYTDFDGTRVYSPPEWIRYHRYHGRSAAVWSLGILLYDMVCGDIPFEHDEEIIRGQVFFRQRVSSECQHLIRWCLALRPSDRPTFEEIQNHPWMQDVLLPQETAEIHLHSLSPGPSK
T8 sequence (P49841 whole entry): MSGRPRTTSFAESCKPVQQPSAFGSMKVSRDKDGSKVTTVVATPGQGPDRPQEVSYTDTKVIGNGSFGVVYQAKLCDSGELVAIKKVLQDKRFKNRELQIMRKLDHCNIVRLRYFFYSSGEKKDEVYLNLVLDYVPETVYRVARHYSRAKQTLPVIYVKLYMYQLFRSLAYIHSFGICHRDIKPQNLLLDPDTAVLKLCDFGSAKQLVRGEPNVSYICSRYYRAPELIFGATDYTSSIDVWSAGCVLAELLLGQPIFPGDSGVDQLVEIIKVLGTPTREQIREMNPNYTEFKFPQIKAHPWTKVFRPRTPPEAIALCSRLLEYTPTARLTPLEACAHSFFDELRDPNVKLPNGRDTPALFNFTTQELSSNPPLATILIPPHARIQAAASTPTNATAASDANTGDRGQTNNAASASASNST

Structure (SMILES) | remaining activity at 1 µM [1] | remaining activity at 10 µM [1] | IC50 [2] | remaining activity at 1 µM [2] | remaining activity at 10 µM [2] | remaining activity at 1 µM [3] | remaining activity at 10 µM [3] | remaining activity at 1 µM [4] | remaining activity at 10 µM [4] | remaining activity at 1 µM [5] | remaining activity at 10 µM [5] | remaining activity at 1 µM [6] | remaining activity at 10 µM [6] | remaining activity at 1 µM [7] | remaining activity at 10 µM [7] | remaining activity at 1 µM [8] | remaining activity at 10 µM [8] | IC50 [4, 9] | IC50 [5, 10] | other results
O=[N+]([O-])c1c2ccncc2cc2cn[nH]c12 [1a’] | 91% | 62% | 154 nM | 32% | 23% | 86% | 48% | 68% | 25% | 90% | 30% | 90% | 85% | 100% | 64% | 99% | 50% |  |  | IC50 ([4]; assumed on the basis of % of inhibition at 1 μM (less than 50%), read-out: DYRK1A IC50 (assumed)): > 1000 nM; IC50 ([5]; assumed on the basis of % of inhibition at 1 μM (less than 50%), read-out: CLK1 IC50 (assumed)): > 1000 nM
Cn1ncc2cc3cnccc3c([N+](=O)[O-])c21 [Compound 1b, 1-Methyl-9-nitro-1H-pyrazolo[3,4-g]isoquinoline] | 95% | 43% | 57 nM | 26% | 9% | 57% | 35% | 41% | 11% | 42% | 10% | 100% | 54% | 88% | 53% | 73% | 33% | 681 nM | 71 nM | 
CCn1ncc2cc3cnccc3c([N+](=O)[O-])c21 [Compound 1c, 1-Ethyl-9-nitro-1H-pyrazolo[3,4-g]isoquinoline] | 94% | 79% | 66 nM | 38% | 15% | 46% | 23% | 44% | 18% | 25% | 6% | 100% | 70% | 90% | 58% | 53% | 19% | 1110 nM | 166 nM | IC50 ([3]; 10 μM ATP, duplicate): 428 nM
